Results from patent publication US20230391770A1, “METTL3 INHIBITORY COMPOUNDS” (Storm Therapeutics Limited, priority 2020, published 2023).
Where two headings read alike, the source gives them in different places.

Columns and labels:
METTL3/14 = METTL3/14 (Homo sapiens (Human), UniProt Q86U44); assay: METTL3/14 methyltransferase biochemical assay (RapidFire mass spectrometry, METTL3_14 RFMS)
Description: The enzymatic assay was established to determine IC50 values for inhibition of RNA methyltransferase activity. The enzyme used was full-length his-tagged METTL3 co-expressed with full length FLAG-tagged METTL14 in a baculovirus expression system. […] The reaction was incubated for further 60 minutes at room temperature, and then quenched by the addition of 40 μL 7.5% TCA with two internal product standards (D4-SAH and ^13C10-SAH). After termination, plates were sealed, centrifuged and stored at 4° C. until analysis. […] RNA methyltransferase activity was measured label free using the RapidFireTM mass spectrometry (RF/MS) platform. Stopped and stable assay plates were analyzed on the Agilent RF300 integrated autosampler/solid-phase extraction (SPE) system coupled to an ABSciex 4000 mass spectrometer for the generation of the product S-adenosyl homocysteine (SAH) and normalized to the ratio of signal of the two internal product standards, respectively. Solvent A was water containing 0.1% (v/v) TCA. Solvent B was acetonitrile/0.1% ammonium acetate (8:2, v/v).

Caov-3 cells = assay: Caov3 CTG proliferation assay (CellTiter-Glo); format: cell-based; conditions: Homo sapiens, 120 hours treatment, 30 μM top concentration
Description: (§1) Cell treatment and cell growth assessment: 18 hours post-seeding in white 384-Viewplate (6007480, PerkinElmer) at 1500 cells/well, Caov3 cells were treated for 120 hours with compounds inhibiting the METTL3/14 activity (10 serial semi-log dilutions, 30 μM as top concentration). Upon treatment, Coav-3 cells were incubated for 10 min at RT with the CellTiter-Glo reagent (G7571, Promega). Measurement of the luminescence signal was performed on a microplate reader (Ensight, PerkinElmer).

KASUMI-1 cells = assay: Kasumi cell assay (CellTiter-Glo cell growth); format: cell-based; conditions: Homo sapiens, 120 hours treatment, 30 μM top concentration
Description: Cell culture: KASUMI-1 cells (ACC20, Leibniz-Institut DSMZ Deutsche Sammlung von Mikroorganismen und Zellkulturen GmbH) were grown in RPMI 1640 (31870-025, Gibco) supplemented with 20% fetal bovine serum (F1524, Gibco), 1 mM sodium pyruvate (11360-039, Gibco) and 2 mM Glutamax (35050-038, Gibco) in a 5% CO2 humidified incubator at 37° C.
as §1, with “KASUMI-1” for “18”, “were seeded” for “post-seeding”, “ultra-low attachment 384-well culture plate (MS-9384WZ, SBio)” for “white 384-Viewplate (6007480, PerkinElmer)”, “a final concentration of 250,000 cells/ml (35 μL/well) and” for “1500 cells/well, Caov3 cells were”, “Kasumi1” for “Coav-3”

[1] = inhibition of RNA methyltransferase activity, 5 nM METTL3/14, 0.2 μM RNA substrate, 0.5 μM SAM, lower limit of the assay IC50=5 nM

METTL3/14, sequence (Q86U44 whole entry): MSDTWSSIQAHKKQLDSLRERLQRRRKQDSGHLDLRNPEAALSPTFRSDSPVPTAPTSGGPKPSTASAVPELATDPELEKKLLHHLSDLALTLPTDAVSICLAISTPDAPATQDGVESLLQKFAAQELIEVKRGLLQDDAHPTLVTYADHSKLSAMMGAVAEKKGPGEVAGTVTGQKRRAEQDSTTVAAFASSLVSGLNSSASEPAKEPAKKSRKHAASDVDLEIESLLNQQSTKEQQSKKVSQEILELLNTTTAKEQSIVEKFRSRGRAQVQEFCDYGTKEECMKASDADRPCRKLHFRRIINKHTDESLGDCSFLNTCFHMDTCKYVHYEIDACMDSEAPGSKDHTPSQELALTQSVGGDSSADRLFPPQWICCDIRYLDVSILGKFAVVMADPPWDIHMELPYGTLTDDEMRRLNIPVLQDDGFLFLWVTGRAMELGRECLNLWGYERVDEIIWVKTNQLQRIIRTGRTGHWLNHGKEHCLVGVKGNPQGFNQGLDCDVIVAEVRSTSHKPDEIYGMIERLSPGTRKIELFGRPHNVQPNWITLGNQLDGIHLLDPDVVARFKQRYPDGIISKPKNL
METTL3/14, sequence (Q9HCE5 whole entry partner): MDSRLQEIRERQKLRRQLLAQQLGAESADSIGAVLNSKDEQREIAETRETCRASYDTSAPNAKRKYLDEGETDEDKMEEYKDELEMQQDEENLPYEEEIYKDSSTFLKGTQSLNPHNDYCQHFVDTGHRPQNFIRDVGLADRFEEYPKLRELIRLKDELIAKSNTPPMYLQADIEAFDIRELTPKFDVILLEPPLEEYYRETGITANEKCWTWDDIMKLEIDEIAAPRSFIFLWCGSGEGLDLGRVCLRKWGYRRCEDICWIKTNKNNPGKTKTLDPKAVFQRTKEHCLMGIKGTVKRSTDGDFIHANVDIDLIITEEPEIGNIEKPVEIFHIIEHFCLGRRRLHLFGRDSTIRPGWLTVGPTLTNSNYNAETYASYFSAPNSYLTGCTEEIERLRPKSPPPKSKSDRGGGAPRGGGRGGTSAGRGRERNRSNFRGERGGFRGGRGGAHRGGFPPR

SMILES | IC50 (METTL3/14) [nM] | also measured
Cc1nc(C(=O)NCc2cn3cc(CNCC4CCCCC4)ccc3n2)cc(=O)n1C [Example 2, N-[(6-{[(cyclohexylmethyl)amino]methyl}imidazo[1,2-a]pyridin-2-yl)methyl]-1,2-dimethyl-6-oxo-1,6-dihydropyrimidine-4-carboxamide] | 719 | 
O=C(NCc1cn2cc(CNCC3CCCCC3)ccc2n1)c1cnc2ccccc2n1 [Example 6, N-[(6-{[(cyclohexylmethyl)amino]methyl}imidazo[1,2-a]pyridin-2-yl)methyl]quinoxaline-2-carboxamide] | 151 | 
O=C(NCc1cn2cc(CNCC3CCCCC3)ccc2n1)c1ccnc2[nH]ncc12 [Example 7, N-[(6-{[(cyclohexylmethyl)amino]methyl}imidazo[1,2-a]pyridin-2-yl)methyl]-1H-pyrazolo[3,4-b]pyridine-4-carboxamide] | 1400 | 
O=C(NCc1cn2cc(CNCC3CCCCC3)ccc2n1)c1cnc2ccccc2c1 [Example 8, N-[(6-{[(cyclohexylmethyl)amino]methyl}imidazo[1,2-a]pyridin-2-yl)methyl]quinoline-3-carboxamide] |  | IC50 (METTL3/14; [1]): 1190 nM
O=C(NCc1cn2cc(CNCC3CCC3)ccc2n1)c1cccn2cncc12 [Example 10, N-[(6-{[(cyclobutylmethyl)amino]methyl}imidazo[1,2-a]pyridin-2-yl)methyl]imidazo[1,5-a]pyridine-8-carboxamide] | 36.5 | 
O=C(NCc1cn2cc(CNCC3CCC3)ccc2n1)c1cccc2cncn12 [Example 11, N-[(6-{[(cyclobutylmethyl)amino]methyl}imidazo[1,2-a]pyridin-2-yl)methyl]imidazo[1,5-a]pyridine-5-carboxamide] | 104 | 
O=C(NCc1cn2cc(CNCC3CCC3)ccc2n1)c1cnc2[nH]cnc2c1 [Example 13, N-[(6-{[(cyclobutylmethyl)amino]methyl}imidazo[1,2-a]pyridin-2-yl)methyl]-3H-imidazo[4,5-b]pyridine-6-carboxamide] | 1070 | 
O=C(NCc1cn2cc(CNCC3CCC3)ccc2n1)c1cnc2[nH]ccc2c1 [Example 14, N-[(6-{[(cyclobutylmethyl)amino]methyl}imidazo[1,2-a]pyridin-2-yl)methyl]-1H-pyrrolo[2,3-b]pyridine-5-carboxamide] | 14.5 | 
O=C(NCc1cn2cc(CNCC3CC(F)(F)C3)ccc2n1)c1cnc2[nH]ccc2c1 [Example 15, N-{[6-({[(3,3-difluorocyclobutyl)methyl]amino}methyl)imidazo[1,2-a]pyridin-2-yl]methyl}-1H-pyrrolo[2,3-b]pyridine-5-carboxamide] | 27.3 | 
Cn1ccc2cc(C(=O)NCc3cn4cc(CNCC5CCC5)ccc4n3)cnc21 [Example 16, N-[(6-{[(cyclobutylmethyl)amino]methyl}imidazo[1,2-a]pyridin-2-yl)methyl]-1-methyl-1H-pyrrolo[2,3-b]pyridine-5-carboxamide] | 1600 | 
COc1cnc(C#N)c(-c2cn(Cc3cn4cc(CN5CCC(C)(C)CC5)ccc4n3)nn2)c1 [Example 39, 3-[1-({6-[(4,4-dimethylpiperidin-1-yl)methyl]imidazo[1,2-a]pyridin-2-yl}methyl)-1H-1,2,3-triazol-4-yl]-5-methoxypyridine-2-carbonitrile] |  | IC50 (Caov-3 cells): 5530 nM; IC50 (KASUMI-1 cells): 6210 nM
Cc1ccc2nc(CNC(=O)c3nccc4[nH]ncc34)cn2c1 [Reference Example 1, N-({6-methylimidazo[1,2-a]pyridin-2-yl}methyl)-1H-pyrazolo[4,3-c]pyridine-4-carboxamide] |  | IC50 (METTL3/14; [1]): 5340 nM

The next lines start with results.

IC50 (METTL3/14) [nM] | SMILES | also measured
3820 | O=C(NCc1cn2cc(CNCC3CCC3)ccc2n1)c1ccc2[nH]ccc2c1 [Example 17, N-[(6-{[(cyclobutylmethyl)amino]methyl}imidazo[1,2-a]pyridin-2-yl)methyl]-1H-indole-5-carboxamide] | 
14.1 | O=C(NCc1cn2cc(CNCC3CCC3)ccc2n1)c1cnc2[nH]ccc2n1 [Example 18, N-[(6-{[(cyclobutylmethyl)amino]methyl}imidazo[1,2-a]pyridin-2-yl)methyl]-5H-pyrrolo[2,3-b]pyrazine-2-carboxamide] | IC50 (Caov-3 cells): 2790 nM
6.1 | Clc1cc(-c2cn(Cc3cn4cc(CNCC5CCC5)ccc4n3)nn2)c2cncn2c1 [Example 24, ({2-[(4-{6-chloroimidazo[1,5-a]pyridin-8-yl}-1H-1,2,3-triazol-1-yl)methyl]imidazo[1,2-a]pyridin-6-yl}methyl)(cyclobutylmethyl)amine] | IC50 (Caov-3 cells): 343 nM
236 | c1cc(-c2cn(Cc3cn4cc(CNCC5CCC5)ccc4n3)nn2)c2nncn2c1 [Example 27, (cyclobutylmethyl)({2-[(4-{[1,2,4]triazolo[4,3-a]pyridin-8-yl}-1H-1,2,3-triazol-1-yl)methyl]imidazo[1,2-a]pyridin-6-yl}methyl)amine] | IC50 (KASUMI-1 cells): 30000 nM
1260 | c1ccc2c(-c3cn(Cc4cn5cc(CN(CC6CCC6)CC6CCC6)ccc5n4)nn3)cncc2c1 [Example 32, bis(cyclobutylmethyl)[(2-{[4-(isoquinolin-4-yl)-1H-1,2,3-triazol-1-yl]methyl}imidazo[1,2-a]pyridin-6-yl)methyl]amine] | 
9.34 | c1cc2cc(-c3cn(Cc4cn5cc(CNCC6CCC6)ccc5n4)cn3)cnc2[nH]1 [Example 34, (cyclobutylmethyl)({2-[(4-{1H-pyrrolo[2,3-b]pyridin-5-yl}-1H-imidazol-1-yl)methyl]imidazo[1,2-a]pyridin-6-yl}methyl)amine] | IC50 (Caov-3 cells): 1280 nM
105 | Cc1ncc2c(-c3cn(Cc4cn5cc(CNCC67CC(F)(C6)C7)ccc5n4)nn3)cccn12 [Example 36, ({3-fluorobicyclo[1.1.1]pentan-1-yl}methyl)({2-[(4-{3-methylimidazo[1,5-a]pyridin-8-yl}-1H-1,2,3-triazol-1-yl)methyl]imidazo[1,2-a]pyridin-6-yl}methyl)amine] | 
11.2 | COc1cnc(C#N)c(-c2cn(Cc3cn4cc(CNCC56CC(C5)C6)ccc4n3)nn2)c1 [Example 37, 3-{1-[(6-{[({bicyclo[1.1.1]pentan-1-yl}methyl)amino]methyl}imidazo[1,2-a]pyridin-2-yl)methyl]-1H-1,2,3-triazol-4-yl}-5-methoxypyridine-2-carbonitrile] | 
57 | COc1cnc(C#N)c(-c2cn(Cc3cn4cc(CNCC5CCC5)ccc4n3)nn2)c1 [Example 38, 3-{1-[(6-{[(cyclobutylmethyl)amino]methyl}imidazo[1,2-a]pyridin-2-yl)methyl]-1H-1,2,3-triazol-4-yl}-5-methoxypyridine-2-carbonitrile] | 
76 | COc1cnc(C#N)c(-c2cn(Cc3cn4cc(CN5CCC6(CCC6)C5)ccc4n3)nn2)c1 [Example 40, 3-(1-{[6-({6-azaspiro[3.4]octan-6-yl}methyl)imidazo[1,2-a]pyridin-2-yl]methyl}-1H-1,2,3-triazol-4-yl)-5-methoxypyridine-2-carbonitrile] | 
1180 | N#Cc1ncc(F)cc1-c1cn(Cc2cn3cc(CN4CCC5(CCC5)C4)ccc3n2)nn1 [Example 42, 3-(1-{[6-({6-azaspiro[3.4]octan-6-yl}methyl)imidazo[1,2-a]pyridin-2-yl]methyl}-1H-1,2,3-triazol-4-yl)-5-fluoropyridine-2-carbonitrile] | 
235 | N#Cc1ncc(F)cc1-c1cn(Cc2cn3cc(CNCC45CC(F)(C4)C5)ccc3n2)nn1 [Example 43, 5-fluoro-3-{1-[(6-{[({3-fluorobicyclo[1.1.1]pentan-1-yl}methyl)amino]methyl}imidazo[1,2-a]pyridin-2-yl)methyl]-1H-1,2,3-triazol-4-yl}pyridine-2-carbonitrile] | 
74 | COc1cncc(C(=O)NCc2cn3cc(CNCC4CCC4)ccc3n2)c1 [Example 46, N-[(6-{[(cyclobutylmethyl)amino]methyl}imidazo[1,2-a]pyridin-2-yl)methyl]-5-methoxypyridine-3-carboxamide] | 
85 | COc1cnc(C(N)=O)c(-c2cn(Cc3cn4cc(CNCC56CC(F)(C5)C6)ccc4n3)nn2)c1 [Example 49, 3-{1-[(6-{[({3-fluorobicyclo[1.1.1]pentan-1-yl}methyl)amino]methyl}imidazo[1,2-a]pyridin-2-yl)methyl]-1H-1,2,3-triazol-4-yl}-5-methoxypyridine-2-carboxamide] | 
